For 19 compounds, T/C results are on record in PubChem BioAssay AID278 (DTP/NCI, 2004).

Values joined by “and” are separate entries in the source; they are usually repeats but may differ in a detail not shown here. Identical values can stand only once. Inconclusive results are not listed.

For the experiment, the system named is nude mice, A549 intrarenal xenograft, tumor weight change. Description: NCI In Vivo Anticancer Drug Screen. Data for tumor model A549 Human Adenocarcinoma of Lung with characteristics of Type II Alveolar Epithelial cells (intrarenal inoculation) in NU/NU BALB/C (nude) mice. Conditions: endpoint: mean tumor weight change, schedule: Q04DX003 (ip), higher = larger tumour. A digest of the protocol: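 Mice bearing transplantable tumors were treated and survival or tumor size recorded. Values are given as treated-group measurement divided by vehicle-control measurement (T/C).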

The mark [1] stands for this setting: dose: 37.5 mg/kg/injection, vehicle: saline with Tween-80.
Where [2] appears, read: dose: 150.0 mg/kg/injection, vehicle: saline with Tween-80.
[3] abbreviates: dose: 300.0 mg/kg/injection, vehicle: saline with Tween-80.
Setting [4] is: dose: 150.0 mg/kg/injection, vehicle: Klucel (hydroxypropylcellulose) (HPC).
Where [5] appears, read: dose: 300.0 mg/kg/injection, vehicle: Klucel (hydroxypropylcellulose) (HPC).

Consider `O=c1[nH]cnc2c1cnn2CN1CCOCC1`, for which the T/C was 166 % of control (dose: 50.0 mg/kg/injection, vehicle: Klucel (hydroxypropylcellulose) (HPC)) and 72 % of control (dose: 100.0 mg/kg/injection, vehicle: Klucel (hydroxypropylcellulose) (HPC)).

As for `Cc1c2ccccc2c(C)c2c1cc(C(=O)O)c1ccccc12`, the T/C was 150 % of control under setting [1], 113 % of control under setting [2] and 85 % of control under setting [3].

Turning to `CCCCOCN(COCCCC)C12CC3CC(CC(C3)C1)C2`, the T/C is 123 % of control (dose: 100.0 mg/kg/injection, vehicle: saline with Tween-80) and 203 % of control (dose: 400.0 mg/kg/injection, vehicle: saline with Tween-80).

For the compound `CC(=O)NO`, the T/C reads like this: (dose: 150.0 mg/kg/injection, vehicle: water) 83 % of control; (dose: 300.0 mg/kg/injection, vehicle: water) 82 % of control; (dose: 600.0 mg/kg/injection, vehicle: water) 109 % of control; (dose: 1200.0 mg/kg/injection, vehicle: water) 66 % of control.

For `CN(C)N=Nc1ccc(C(N)=O)cc1`, the T/C is 65 % of control (dose: 22.5 mg/kg/injection, vehicle: saline with Tween-80); 55 % of control (dose: 45.0 mg/kg/injection, vehicle: saline with Tween-80); 54 % of control (dose: 90.0 mg/kg/injection, vehicle: saline with Tween-80); 17 % of control (dose: 180.0 mg/kg/injection, vehicle: saline with Tween-80); 39 % of control (dose: 216.0 mg/kg/injection, vehicle: saline with Tween-80); 2 % of control and 15 % of control (dose: 360.0 mg/kg/injection, vehicle: saline with Tween-80).

Consider `O=C1CC2(C(=O)N1CN1CCOCC1)c1ccccc1-c1ccccc12`, for which the T/C under setting [4] was 36 % of control; the T/C (dose: 216.0 mg/kg/injection, vehicle: Klucel (hydroxypropylcellulose) (HPC)) is 21 % of control; the T/C under setting [5] was 28 % of control; the T/C (dose: 360.0 mg/kg/injection, vehicle: Klucel (hydroxypropylcellulose) (HPC)) was 23 % of control; the T/C (dose: 600.0 mg/kg/injection, vehicle: Klucel (hydroxypropylcellulose) (HPC)) was 11 % of control.

On to `CCCC1CCC(=C2C(=O)CCC2=O)O1` (stereo not given), for which the T/C by setting is: under setting [1], 247 % of control; (dose: 75.0 mg/kg/injection, vehicle: saline with Tween-80) 68 % of control; under setting [2], 109 % of control; under setting [3], 50 % of control.

As for `CN(C)/N=N/c1nc[nH]c1C(N)=O`, the T/C by setting is: (dose: 75.0 mg/kg/injection, vehicle: suspension in saline) 11 % of control; (dose: 150.0 mg/kg/injection, vehicle: suspension in saline) 48 % of control; (dose: 225.0 mg/kg/injection, vehicle: suspension in saline) 8 % of control.

Turning to `COc1cc(C2=NCCc3cc4c(cc32)OCO4)cc(OC)c1OC`, the T/C runs as follows: (dose: 37.5 mg/kg/injection, vehicle: saline + alcohol) 73 % of control; (dose: 75.0 mg/kg/injection, vehicle: saline + alcohol) 49 % of control; (dose: 150.0 mg/kg/injection, vehicle: saline + alcohol) 31 % of control.

In the case of `CC1=C[P+](c2ccccc2)(c2ccccc2)C=C(c2ccccc2)O1`, the T/C (dose: 1.0 mg/kg/injection, vehicle: suspension in saline) is 94 % of control; the T/C (dose: 2.0 mg/kg/injection, vehicle: suspension in saline) was 89 % of control; the T/C (dose: 8.0 mg/kg/injection, vehicle: suspension in saline) is 80 % of control.

Consider `CN(C)c1ccc2c(SCC(=O)OCC(=O)[C@@]3(O)CC[C@H]4[C@@H]5CCC6=CC(=O)C=C[C@]6(C)[C@H]5C(=O)C[C@@]43C)c3ccc(N(C)C)cc3nc2c1`, for which the T/C was 52 % of control (dose: 75.0 mg/kg/injection, vehicle: Klucel (hydroxypropylcellulose) (HPC)); 62 % of control under setting [4]; 96 % of control under setting [5].

Consider `COc1cc2c[n+](C)c3c(c2cc1OC)Cc1cc2c(cc1-3)OCO2`, for which, where the note is “dose: 18.75 mg/kg/injection, vehicle: saline with Tween-80”, the T/C is 39 % of control.

`O=C(O)CCCc1ccc(N(CCCl)CCCl)cc1`: the T/C runs as follows: (dose: 0.13 mg/kg/injection, vehicle: Klucel (hydroxypropylcellulose) (HPC)) 93 % of control; (dose: 0.2 mg/kg/injection, vehicle: Klucel (hydroxypropylcellulose) (HPC)) 101 % of control; (dose: 0.3 mg/kg/injection, vehicle: Klucel (hydroxypropylcellulose) (HPC)) 169 % of control; (dose: 12.0 mg/kg/injection, vehicle: saline with Tween-80) 118 % of control; (dose: 18.0 mg/kg/injection, vehicle: saline with Tween-80) 64 % of control; (dose: 27.0 mg/kg/injection, vehicle: saline with Tween-80) 15 % of control.

Turning to `CCOC(=O)Nc1cc2c(c(N)n1)N=C(c1ccc3ccccc3c1)CN2`, the T/C is, setting by setting: (dose: 7.5 mg/kg/injection, vehicle: saline with Tween-80) 82 % of control; (dose: 15.0 mg/kg/injection, vehicle: saline with Tween-80) 113 % of control; (dose: 30.0 mg/kg/injection, vehicle: saline with Tween-80) 63 % of control; (dose: 60.0 mg/kg/injection, vehicle: saline with Tween-80) 55 % of control.

In the case of `CN(Cc1cnc2nc(N)nc(N)c2n1)c1ccc(C(=O)N[C@@H](CCC(=O)O)C(=O)O)cc1`, the T/C (dose: 27.0 mg/kg/injection, vehicle: sodium bicarbonate) is 100 % of control.

As to `c1cn[nH]c1`, the T/C is, setting by setting: (dose: 113.9 mg/kg/injection, vehicle: saline) 93 % of control; (dose: 151.9 mg/kg/injection, vehicle: saline) 47 % of control; (dose: 202.5 mg/kg/injection, vehicle: saline) 63 % of control; (dose: 300.0 mg/kg/injection, vehicle: saline) 46 % of control.

Regarding `S=C(N/N=C1/CCCC/C1=N/NC(=S)N1CCOCC1)N1CCOCC1`, the T/C was 71 % of control (dose: 6.25 mg/kg/injection, vehicle: saline with Tween-80); 27 % of control (dose: 12.5 mg/kg/injection, vehicle: saline with Tween-80); 37 % of control (dose: 25.0 mg/kg/injection, vehicle: saline with Tween-80); 82 % of control (dose: 50.0 mg/kg/injection, vehicle: saline with Tween-80).

As to `NC(Cc1ccccc1)C(=O)OCN1C(=O)C2C3C=CC(C2C1=O)C1C2C(=O)N(COC(=O)C(N)Cc4ccccc4)C(=O)C2C31` (stereo not given), the T/C was 82 % of control (dose: 25.0 mg/kg/injection, vehicle: other); 73 % of control (dose: 50.0 mg/kg/injection, vehicle: other); 48 % of control (dose: 100.0 mg/kg/injection, vehicle: other); 35 % of control (dose: 200.0 mg/kg/injection, vehicle: other).

`COC(=O)NC1C(C)OC(OC2C/C=C(/C)C3C=CC4C(OC5CC(OC6CC(OC7CC(O)C(O)C(C)O7)C(OC7CC(O)C(OC)C(C)O7)C(C)O6)C(O)C(C)O5)C(C)CC(C)C4C3(C)/C(O)=C3\C(=O)OC4(CC(C)C(CO)=CC4/C=C\2C)C3=O)CC1(C)[N+](=O)[O-]` (stereo not given): the T/C runs as follows: (dose: 9.38 mg/kg/injection, vehicle: water) 69 % of control; (dose: 18.75 mg/kg/injection, vehicle: water) 58 % of control; (dose: 37.5 mg/kg/injection, vehicle: water) 76 % of control.
